The values below are quoted from earlier work in patent publication US8613858B2, “Separation process” (Dupont Nutrition Biosciences APS, priority 2005, dated 2013).

The conditions of data set [1]: characteristic properties of model compounds.
For data set [2] the following is noted: characteristic properties of model compounds. The source holds these as a separate data set.

As for `O=C(O)CC(O)(CC(=O)O)C(=O)O` [Citric acid], the LogPOW in data set [1] is recorded as −1.67.
For the molecule `OCC(O)CO` [Glycerol], the LogPOW in data set [1] was −1.76.
For `C[N+](C)(C)CC(=O)O` [Betaine], the Water solubility in data set [2] was 611 mg/mL. In data set [1], the LogPOW is recorded as −2.93.
